Results: a melting point compilation (Tetko et al.)

In the case of `COCCNC(=O)c1ccc(Cl)nc1`, the melting point is reported as 112 to 114 °C.

Compound `CC1(C)C(=O)Nc2ccc(C(=O)CCl)cc21` has a melting point of 233 to 235 °C.

`Cc1cccc(C)c1NS(=O)(=O)c1ccc(N)cc1` showed a melting point of 212 to 214 °C.

Work on `COc1ccc2[nH]c(C(=O)O)cc2c1OC` yielded a melting point of 221 to 223 °C.

With `COCCNc1nc(Cl)nc(Cl)n1` the melting point was 71 to 73 °C.

Compound `Cc1noc(C)c1S(=O)(=O)NC1(C(=O)O)CCCC1` has a melting point of 176 to 178 °C.

`O=C(O)C=Cc1ccnc2ccccc12` gave a melting point of 256 to 258 °C.

`CC1C(=O)Nc2ccc(S(=O)(=O)Cl)cc21` (centres undefined) gave a melting point of 164 to 168 °C.

`CC(=O)N1CCCC(C(=O)O)C1` (centres undefined) showed a melting point of 129 to 131 °C.

`O=C(O)c1ccc(N/N=C/c2cccc(F)c2)cc1` showed a melting point of 229 to 231 °C.

`O=C(CC(=O)Nc1cc(Cl)ccc1Cl)Nc1cc(Cl)ccc1Cl` showed a melting point of 226 to 228 °C.

Work on `NS(=O)(=O)c1ccc(NC(=O)C(=O)O)cc1` yielded a melting point of 259 to 261 °C.

`O=C(O)CN(Cc1ccccc1)Cc1ccccc1` showed a melting point of 195 to 197 °C.

`N#Cc1cccc(-c2nnc(N)o2)c1` gave a melting point of 253 to 255 °C.

`CCC(CC)NS(=O)(=O)c1ccc(Cl)nc1` gave a melting point of 91 to 93 °C.

With `CCOC(=O)C(=O)CC(=O)c1ccccc1OCC` the melting point was 91 to 93 °C.

In the case of `Cc1cc(C(=O)CCl)c(C)n1-c1ccc(F)c(Cl)c1`, the melting point is reported as 115 to 117 °C.

Work on `O=C(O)c1cccc(F)c1I` yielded a melting point of 148 to 150 °C.

In the case of `CC(C)CN1CCOC(CNC(=O)CCl)C1` (centres undefined), the melting point is reported as 83 to 85 °C.

Work on `CN1C(=O)CC(C(N)=O)C1c1cccc(Cl)c1` (centres undefined) yielded a melting point of 188 to 190 °C.

Work on `NC(=S)NCc1cccc(C(F)(F)F)c1` yielded a melting point of 97 to 99 °C.

For `O=C(O)CCCNc1nc2ccccc2s1`, the melting point was 110 to 112 °C.

For `Cc1cc(N)n(C2CCOC2)n1` (centres undefined), the melting point was 91 to 93 °C.

With `CN(C)C(=O)c1cc(Oc2ccc(N)cc2)ccn1` the melting point was 113 to 115 °C.

With `O=C(O)c1sccc1S(=O)(=O)N1CCOCC1` the melting point was 189 to 191 °C.

Compound `N#CCCn1cc(C(=O)O)c(-c2cccc([N+](=O)[O-])c2)n1` has a melting point of 242 to 244 °C.

With `CC(C)c1ccc(C(=O)O)c(O)c1` the melting point was 93 to 95 °C.

`O=C(Nc1cccs1)OCC(F)(F)F` gave a melting point of 58 to 60 °C.

With `Nc1cccc(-c2ccc(=O)[nH]n2)c1` the melting point was 206 to 208 °C.

Work on `COC(=O)Nc1cccc(O)c1` yielded a melting point of 95 to 97 °C.

In the case of `CC(=O)c1ccc2c(c1)CCC(=O)N2`, the melting point is reported as 162 to 164 °C.

For `NNC(=O)CCOc1ccccc1`, the melting point was 69 to 71 °C.

`CC(C)c1ccc(OCCC(=O)O)cc1` showed a melting point of 113 to 115 °C.

For `O=C(O)C=Cc1cn(-c2ccccc2)nc1-c1cccc([N+](=O)[O-])c1`, the melting point was 248 to 250 °C.

`O=C(O)c1cccc(CN2CCCC2=O)c1` gave a melting point of 145 to 155 °C.

With `Cc1nn(-c2ccc(F)cc2)c(Cl)c1C=O` the melting point was 124 to 126 °C.

In the case of `Cn1cc(OCc2ccccc2)c(=O)cc1CO`, the melting point is reported as 221 to 223 °C.

`O=C(O)CCCOc1cccc2ccccc12` showed a melting point of 116 to 118 °C.

`Cn1nc(I)c2ncccc21` gave a melting point of 186 to 188 °C.

For `CC(=O)CC(=O)c1cccc(Cl)c1`, the melting point was 39 to 41 °C.

In the case of `CCN(CC)S(=O)(=O)c1cc(NC(=O)CCl)ccc1C`, the melting point is reported as 70 to 72 °C.

With `Cc1n[nH]c(C)c1CC(=O)O` the melting point was 151 to 155 °C.

Compound `CC(Cl)C(=O)Nc1ccccc1[N+](=O)[O-]` (centres undefined) has a melting point of 71 to 73 °C.

Compound `COc1cc(N)ccc1NC(C)=O` has a melting point of 121 to 123 °C.

With `Fc1ccccc1CCNC1=NCCS1` the melting point was 95 to 97 °C.

In the case of `O=C(O)C1CCN(c2cnccn2)CC1`, the melting point is reported as 149 to 151 °C.

`CC(=O)Nc1cccc(C#N)c1` showed a melting point of 133 to 135 °C.

`O=CNc1ccc(C(=O)O)cc1` showed a melting point of 264 to 266 °C.

Work on `CC(C)(C)c1ccc(C2(C(=O)O)CCC2)cc1` yielded a melting point of 179 to 181 °C.

For `O=C(Nc1ccc(S(=O)(=O)Cl)cc1[N+](=O)[O-])C(F)(F)F`, the melting point was 91 to 93 °C.

`CCNS(=O)(=O)c1cccc(F)c1` gave a melting point of 49 to 51 °C.

`Nc1nc(-c2ccccc2)cn1N` gave a melting point of 258 to 260 °C.

With `O=c1[nH]cnc2cc(-c3ccc(Cl)cc3)sc12` the melting point was 327 to 329 °C.

`O=C(O)C1(c2cccc(Cl)c2)CCC1` gave a melting point of 101 to 103 °C.

Compound `CN(C)C(=O)c1ccc2c(c1)CCN2` has a melting point of 156 to 158 °C.

Compound `O=C1CCC(O)(c2ccccc2)CC1` has a melting point of 126 to 128 °C.

For `Cc1oc2c(F)c(F)c(F)c(F)c2c1C(=O)O`, the melting point was 206 to 208 °C.

For `Cn1c(=O)c2c(ncn2CCCC(=O)O)n(C)c1=O`, the melting point was 167 to 169 °C.

For `O=[N+]([O-])c1ccc(NC2CCCC2)cc1`, the melting point was 86 to 88 °C.

`Cc1nn(-c2ccccc2)cc1N` gave a melting point of 81 to 83 °C.

`O=C(O)CN(C(=O)c1ccc(Br)o1)c1ccccc1` gave a melting point of 129 to 131 °C.

`CCc1cccc(CC)c1-n1ccnc1` gave a melting point of 74 to 76 °C.

`O=c1onc(-c2ccccc2)n1CC1CO1` (centres undefined) gave a melting point of 81 to 83 °C.

In the case of `O=C(O)CNC(=O)c1ccc(Br)cc1`, the melting point is reported as 160 to 162 °C.

For `CN(C)S(=O)(=O)c1cn[nH]c1`, the melting point was 132 to 134 °C.

With `Cc1cccc(C)c1C=O` the melting point was 27 to 30 °C.

In the case of `NS(=O)(=O)c1ccc(F)cc1[N+](=O)[O-]`, the melting point is reported as 153 to 155 °C.

In the case of `Nc1nnc(Cc2ccc(F)cc2)s1`, the melting point is reported as 170 to 172 °C.

With `CN(C)S(=O)(=O)c1ccc2c(c1)NCCC2` the melting point was 130 to 132 °C.

Work on `O=C(O)c1c2c(nc3ccccc13)C(=Cc1cccc([N+](=O)[O-])c1)CCC2` yielded a melting point of 299 to 301 °C.

Work on `COc1ccccc1-c1nnc(S)o1` yielded a melting point of 243 to 245 °C.

In the case of `CC(C)Oc1cncc(C(=O)O)c1`, the melting point is reported as 172 to 174 °C.

With `S=C=Nc1ccc2ccccc2c1` the melting point was 59 to 61 °C.

In the case of `CC(C)C(Br)C(=O)c1ccccc1` (centres undefined), the melting point is reported as 49 to 51 °C.

For `CC(C)(C)Sc1ccc(C(N)=S)nc1`, the melting point was 129 to 131 °C.

`CC(C)(C)OC(=O)N1CCC(O)(C(F)(F)F)C1` (centres undefined) showed a melting point of 102 to 104 °C.

For `Clc1nc2cccnc2nc1Cl`, the melting point was 143 to 145 °C.

In the case of `N#Cc1ccc(CO)cc1`, the melting point is reported as 39 to 43 °C.

Work on `Nc1c(O)cccc1F` yielded a melting point of 121 to 123 °C.

`CC(C)c1ccc(S(=O)(=O)N2CCNCC2)cc1` showed a melting point of 125 to 127 °C.

Compound `CCc1ccc(C(=O)c2ccc([N+](=O)[O-])cc2)o1` has a melting point of 76 to 78 °C.

Compound `O=Cc1cnc2ccccn12` has a melting point of 118 to 120 °C.

Work on `CC(C)(C)c1ccccc1OCC(=O)O` yielded a melting point of 144 to 148 °C.

Work on `CC1=CC(=O)N(c2ccc(C(=O)O)cc2)C1=O` yielded a melting point of 201 to 203 °C.

`N#Cc1ccccc1S(=O)(=O)N1CCN(C(=O)CCl)CC1` showed a melting point of 206 to 208 °C.

With `Cc1ccccc1CNc1ccccc1N` the melting point was 71 to 73 °C.

Compound `O=C(O)c1ccc(NC(=O)N2CCCCC2)c(F)c1` has a melting point of 179 to 181 °C.

For `CCOC(=O)c1c(C)nn2c(=O)cc(CCl)[nH]c12`, the melting point was 218 to 220 °C.

Work on `Nc1ccc(N2CCCCC2)c(S(=O)(=O)Nc2ccc(Cl)cc2)c1` yielded a melting point of 145 to 147 °C.

For `COc1ccc(CCNC(=O)CC(=O)NCCc2ccc(OC)cc2)cc1`, the melting point was 161 to 163 °C.

For `Cc1ccc(-c2n[nH]c(=O)c3ccccc23)cc1C`, the melting point was 252 to 254 °C.

For `Clc1cn2ccccc2n1`, the melting point was 72 to 74 °C.

`O=C(c1ccccc1)C1CCOCC1` showed a melting point of 57 to 59 °C.

`O=C(O)c1nc(-c2ccccc2)oc1-c1ccccc1` gave a melting point of 193 to 195 °C.

In the case of `O=C(O)/C=C/c1ccc(Br)s1`, the melting point is reported as 209 to 211 °C.

With `CC(C)(C)CNC(=O)c1ccc(C(=O)O)cc1` the melting point was 201 to 203 °C.

`CS(=O)(=O)N1CCCC(Cl)C1` (centres undefined) gave a melting point of 54 to 56 °C.

`O=C(Nc1ccc(C(F)(F)F)cc1)OCC(F)(F)F` showed a melting point of 102 to 104 °C.

Compound `CNS(=O)(=O)c1ccc(Br)s1` has a melting point of 59 to 61 °C.
